These results are taken from US10851072B2 (THE REGENTS OF THE UNIVERSITY OF MICHIGAN, priority 2018, dated 2020).

One data set concerns C57BL/6J mice. Put plainly: In vivo testing for antifibrotic effects (bleomycin skin injections). Particulars: skin of bleomycin-injected mice, A1 3 or 10 mg/kg PO daily, fourteen days. As to the method: C57BL/6J mice were ordered from Jackson labs for delivery at 15-16 weeks of age. Mice were preconditioned with supplemental chow for two weeks prior to start of experiment. Mice were randomized by weight into four groups (vehicle, A1 (3 mg/kg), A1 (10 mg/kg), PBS). Each group consisted of two cages with four mice per cage. Drug stock solutions were aliquoted and stored at 4° C. for the duration of the study. Aliquots were warmed to 37° C. and briefly vortexed prior to filling the gavage syringes. Vehicle and A1 groups received daily bleomycin injections (0.1 mL, ID) each afternoon in a defined area of shaved dorsal skin. PBS control group received daily injections (0.1 mL, ID) of PBS in the afternoon. Mice were anesthetized with ketamine/xylazine for ID injections. […]
Fixed skin was paraffin embedded and sectioned at the University of Michigan Comprehensive Cancer Center Histology Core. […] Stained sections were analyzed with an Olympus BX51\DP72 microscope. Dermal thickness was determined by measuring the maximal distance between the epidermal-dermal junction and the dermal-subcutaneous fat junction. […]
Skin sections were weighed and hydrolyzed in 6M HCl at 120° C. for three hours. […] Absorbance was measured at 560 nm using a Synergy HT microplate reader (BioTek Instruments). […]

The test system of data set [1] is serum response element (SRE). Kind of data set: SRE.L-Luciferase Reporter Assay. The class given is cell-based. Particulars: Homo sapiens; Table D; HEK-293T cells co-transfected with Gα12Q231L, SRE.L and pRL-TK plasmids; 19 hrs treatment. On the procedure: Biological activity of the compounds disclosed herein were assessed in the SRE.L luciferase reporter assay. HEK-293T cells were co-transfected with 2 ng of the Gα12Q231L expression plasmid along with 50 ng of the SRE.L and 7 ng of the pRL-TK luciferase reporter plasmids, as described in the Materials and Methods section. Cells were treated with 0 (vehicle, DMSO alone), 1, 3, 10, 30, and 100 μM of a compound disclosed herein for 19 hrs after transfection before lysis. Luminescence was determined as described in the Materials and Methods section. Just before cell lysis, the viability of the cells was measured using the WST-1 cell proliferation reagent as described in the Materials and Methods section. Data are expressed as percentage of inhibition (DMSO alone=0%). The experiments were performed three separate times to achieve n=3 in triplicate.

A short description of data set [2]: MLM metabolic stability (half-life). The class given is in vitro ADME, mice. Particulars: mouse, mouse liver microsomes (MLM), 1 μM compound, beta-NADPH 1 mM, 60 min, LC-MS, read-out: MLM T1/2. On the procedure: Compounds (1 μM) were incubated with MLM in the presence of beta-NADPH (1 mM) for 60 min. The remaining drug concentration was measured using LC-MS using multiple reaction monitoring (MRM) mode. Both initial and overall disappearance rate and half-lives were calculated. […] Verapamil was run as a positive control in every assay; its half-life could not exceed 4 min or the assay was considered invalid.

Regarding `O=C(O)CCCSc1nnc(-c2ccc(C3CC3)cc2Cl)o1` [Compound A1, 4-((5-(2-chloro-4-cyclopropylphenyl)-1,3,4-oxadiazol-2-yl)thio)butanoic acid], the collagen thickness entry in the data set with C57BL/6J mice (Masson's trichrome, dermal thickness, FIG. 2) is “reduction”. Moreover, the hydroxyproline content entry in the data set with C57BL/6J mice (FIG. 1) is on record as “reduction”. In data set [1], this compound returned an IC50 of 1.2 pM. Also, the half-life at 1 μM in data set [2] amounted to 47 min.
